Tests used:
Format in all cases: in vivo
[1] = system: Nightshade; assay: Test C preemergence; settings: Rate 250 g/ha, visual evaluation after 12 to 14 days
[2] = system: rice (Oryza saliva); assay: Test C flooded paddy test; settings: for Rice plant response rating: Flooded Paddy, scale 0 to 100, 0 no effect, 100 complete control; for Plant response rating, Rice: flooded paddy test, scale 0 to 100 (0 no effect, 100 complete control)
Procedure, shortened: (§1)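 Each species was cultivated to 2 leaves in flooded paddy pots, then treated. After a greenhouse period of 12–14 days, the plants were scored visually relative to controls from 0 (no effect) to 100 (complete control).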

[3] = system: duck salad (Heteranthera limosa); assay: Test C flooded paddy test; settings: for Ducksalad plant response rating: Flooded Paddy, scale 0 to 100, 0 no effect, 100 complete control; for Plant response rating, Ducksalad: flooded paddy test, scale 0 to 100 (0 no effect, 100 complete control)
Procedure, shortened: as §1

[4] = system: smallflower flatsedge (Cyperus difformis); assay: Test C flooded paddy test; settings: for Flatsedge plant response rating: Flooded Paddy, scale 0 to 100, 0 no effect, 100 complete control; for Plant response rating, Flatsedge: flooded paddy test, scale 0 to 100 (0 no effect, 100 complete control)
Procedure, shortened: as §1

[5] = system: barnyardgrass (Echinochloa crus-galli); assay: Test C flooded paddy test; settings: for Barnyardgrass plant response rating: Flooded Paddy, scale 0 to 100, 0 no effect, 100 complete control; for Plant response rating, Barnyardgrass: flooded paddy test, scale 0 to 100 (0 no effect, 100 complete control)
Procedure, shortened: as §1

[6] = system: Sunflower; assay: Test C preemergence; settings: Rate 125 g/ha, scale 0 to 100, 0 no effect, 100 complete control
[7] = system: johnsongrass (Sorghum halepense); assay: Test C preemergence
Procedure, shortened: (§2)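 Pre- and postemergence treatments used a non-phytotoxic solvent/surfactant formulation; post-treated plants measured 2 to 18 cm. Greenhouse hold 12–14 d; % control estimated visually relative to controls.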

[8] = system: Nightshade; assay: Test C preemergence
[9] = system: lambsquarters (Chenopodium album); assay: Test C preemergence
Procedure, shortened: as §2

[10] = system: kochia (Kochia scoparia); assay: Test C preemergence
Procedure, shortened: as §2

[11] = system: yellow nutsedge (Cyperus esculentus); assay: Test C preemergence
Procedure, shortened: as §2

[12] = system: corn (Zea mays); assay: Test C preemergence
Procedure, shortened: as §2

[13] = system: woolly cupgrass (Eriochloa villosa); assay: Test C preemergence
Procedure, shortened: as §2

[14] = system: soybean (Glycine max); assay: Test C preemergence
Procedure, shortened: as §2

[15] = system: pigweed (Amaranthus retroflexus); assay: Test C preemergence
Procedure, shortened: as §2

[16] = system: corn (Zea mays); assay: Test B postemergence; settings: 13 to 15 days
Procedure, shortened: (§3)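 Seeds were planted and sprayed preemergence with test chemical in a non-phytotoxic solvent mixture containing surfactant; postemergence plants (2 to 18 cm, 1- to 4-leaf stage) received the same formulation. Greenhouse hold 13 to 15 days, then visual rating versus untreated controls on a 0–100 scale (0 no effect, 100 complete control).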

[17] = system: wild oat (Avena fatua); assay: Test B postemergence; settings: 13 to 15 days
Procedure, shortened: as §3

[18] = system: wheat (Triticum aestivum); assay: Test B postemergence; settings: 13 to 15 days
Procedure, shortened: as §3

[19] = system: barnyardgrass (Echinochloa crus-galli); assay: Test B postemergence; settings: 13 to 15 days
Procedure, shortened: as §3

[20] = Rate 62 g/ha, scale 0 to 100, 0 no effect, 100 complete control
[21] = preemergence, Rate 31 g/ha, scale 0 to 100
[22] = preemergence, Rate 250 g/ha, visual evaluation after 12 to 14 days
[23] = preemergence, Rate 125 g/ha, scale 0 to 100, 0 no effect, 100 complete control
[24] = Rate 125 g/ha, scale 0 (no effect) to 100 (complete control)
[25] = Rate 500 g/ha, scale 0 to 100, 0 is no effect, 100 is complete control

O=C1C(n2ccc(C3CCC3)n2)SCN1c1cccc(C(F)(F)F)c1 (stereo not drawn) [Compound 37]
50: Plant response rating, Kochia [10, 20] | Plant response rating (0 to 100), Soybean [14, 22]
30: Rice plant response rating ([2]; Rate 250 g/ha) | Plant response rating, Johnsongrass [7, 20] | Plant response rating, Johnsongrass [7, 23] | Plant response rating (0 to 100), Nutsedge [11, 22]
90: Rice plant response rating ([2]; Rate 500 g/ha) | Ducksalad plant response rating ([3]; Rate 250 g/ha) | Plant response rating (0 to 100), Johnsongrass [7, 22]
100: Ducksalad plant response rating ([3]; Rate 500 g/ha) | Flatsedge plant response rating ([4]; Rate 250 g/ha) | Flatsedge plant response rating ([4]; Rate 500 g/ha) | Plant response rating, Flatsedge ([4]; Rate 62 g/ha) | Plant response rating, Flatsedge ([4]; Rate 125 g/ha) | Barnyardgrass plant response rating ([5]; Rate 250 g/ha) | Barnyardgrass plant response rating ([5]; Rate 500 g/ha) | Plant response rating, Barnyardgrass ([5]; Rate 125 g/ha) | Plant response rating, Lambsquarters [9, 20] | Plant response rating, Lambsquarters [9, 21] | Plant response rating (0 to 100), Lambsquarters [9, 22] | Plant response rating, Lambsquarters [9, 23] | Plant response rating (0 to 100), Kochia [10, 22] | Plant response rating, Kochia [10, 23] | Plant response rating (0 to 100), Cupgrass, Woolly [13, 22] | Plant response rating (0 to 100), Pigweed [15, 22] | Plant response rating, Barnyardgrass [19, 25]
70: Plant response rating, Barnyardgrass ([5]; Rate 62 g/ha)
40: Plant response rating, Kochia [10, 21] | Plant response rating (0 to 100), Corn [12, 22] | Plant response rating, Corn [12, 23]
80: Plant response rating, Ducksalad ([3]; Rate 125 g/ha) | Plant response rating, Barnyardgrass [19, 24]
20: Plant response rating, Ducksalad ([3]; Rate 62 g/ha) | Plant response rating, Johnsongrass [7, 21] | Plant response rating, Nutsedge [11, 20] | Plant response rating, Nutsedge [11, 23] | Plant response rating, Corn [16, 25]
0: Plant response rating (0 to 100), Nightshade [1] | Plant response rating, Rice ([2]; Rate 62 g/ha) | Plant response rating, Rice ([2]; Rate 125 g/ha) | Plant response rating, Sunflower [6] | Plant response rating, Nightshade ([8]; Rate 31 g/ha, scale 0 to 100) | Plant response rating, Nightshade [8, 20] | Plant response rating, Nightshade ([8]; Rate 125 g/ha, scale 0 to 100, 0 no effect, 100 complete control) | Plant response rating, Nutsedge [11, 21] | Plant response rating, Corn [12, 20] | Plant response rating, Corn [12, 21] | Plant response rating, Cupgrass, Woolly [13, 20] | Plant response rating, Cupgrass, Woolly [13, 21] | Plant response rating, Cupgrass, Woolly [13, 23] | Plant response rating, Soybean [14, 20] | Plant response rating, Soybean [14, 21] | Plant response rating, Pigweed [15, 20] | Plant response rating, Pigweed [15, 21] | Plant response rating, Pigweed [15, 23] | Plant response rating, Corn [16, 24] | Plant response rating, Wild Oat [17, 24] | Plant response rating, Wild Oat [17, 25] | Plant response rating, Wheat [18, 24] | Plant response rating, Wheat [18, 25]

Source: patent US7138361B2, “Herbicidal heterocycles” (E. I. du Pont de Nemours and Company, priority 2000, dated 2006)
